Assay results: ChEMBL document CHEMBL1201862, “PubChem BioAssay data set” (2004)
Calls of active or inactive are those of the source.

Assays:
[1] = inhibitors of PGC1a acetylation in cells, dose response, cell-based, cherry-picked samples (AID 720514); format: functional;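 also: potency may reflect raised or lowered acetylation signal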
cells [2] = format: functional
[3] = reduction of Shn3 3'UTR firefly luciferase signal, dose response, Schnurri-3 inhibitor project, cell-based, Clone20 osteoblasts, cherry-pick, set 2 (AID 720490); format: functional;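 also: actives lower the luminescence signal as inhibitors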
[4] = Shn3 3'UTR reporter inhibitors, dose response, cell-based, Clone20 osteoblasts, firefly luciferase, cherry-picked (AID 624132); format: functional;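 also: firefly luciferase luminescence from reporter carrying the Shn3 3'UTR in osteoblasts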
[5] = Fluorescence-based cell-based high throughput dose response assay for inhibitors of the interaction of nucleotide-binding oligomerization domain containing 2 (NOD2) and the receptor-interacting serine-threonine kinase 2 (RIPK2).; format: functional; details: Homo sapiens
[6] = THP-1 cell cytotoxicity, dose response, cytotoxicity control for non-replicating M. tuberculosis project (AID 489025); format: functional
Protein RecA = molecular target: T1, Protein RecA (Mycobacterium tuberculosis, UniProt P9WHJ3); assay: Fluorescence Cell-Free Homogeneous Dose Retest to Identify Inhibitors of RecA-Intein Splicing Activity. [Related pubchem assays (depositor defined):AID2097, AID2223, AID489010, AID492950]; format: functional
T1 sequence (P9WHJ3 whole entry): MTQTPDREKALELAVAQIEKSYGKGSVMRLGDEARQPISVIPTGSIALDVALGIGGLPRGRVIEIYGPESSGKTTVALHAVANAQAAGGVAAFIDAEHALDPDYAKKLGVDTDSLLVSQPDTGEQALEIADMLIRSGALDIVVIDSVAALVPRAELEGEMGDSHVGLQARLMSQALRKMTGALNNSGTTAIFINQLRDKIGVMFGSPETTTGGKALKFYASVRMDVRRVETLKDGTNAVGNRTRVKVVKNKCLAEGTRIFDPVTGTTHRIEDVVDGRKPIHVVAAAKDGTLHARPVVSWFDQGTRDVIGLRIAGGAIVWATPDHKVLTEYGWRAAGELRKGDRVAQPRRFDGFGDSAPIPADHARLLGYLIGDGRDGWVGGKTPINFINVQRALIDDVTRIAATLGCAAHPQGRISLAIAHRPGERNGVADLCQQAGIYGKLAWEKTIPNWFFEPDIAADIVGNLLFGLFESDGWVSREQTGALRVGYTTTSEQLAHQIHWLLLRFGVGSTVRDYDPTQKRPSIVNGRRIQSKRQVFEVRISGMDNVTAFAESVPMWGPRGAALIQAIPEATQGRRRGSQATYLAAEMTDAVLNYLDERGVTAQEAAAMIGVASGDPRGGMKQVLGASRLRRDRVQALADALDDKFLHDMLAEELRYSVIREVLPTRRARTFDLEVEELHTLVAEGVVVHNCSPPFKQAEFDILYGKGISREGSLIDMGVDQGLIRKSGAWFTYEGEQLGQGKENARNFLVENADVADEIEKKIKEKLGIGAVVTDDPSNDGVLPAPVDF

[7] = molecular target: T2, Replicative DNA helicase DnaB (Mycobacterium tuberculosis, UniProt P9WMR3); assay: DnaB intein splicing inhibitors, dose response, biochemical, cell-free fluorescence (AID 449749); format: functional
T2 sequence (P9WMR3 whole entry): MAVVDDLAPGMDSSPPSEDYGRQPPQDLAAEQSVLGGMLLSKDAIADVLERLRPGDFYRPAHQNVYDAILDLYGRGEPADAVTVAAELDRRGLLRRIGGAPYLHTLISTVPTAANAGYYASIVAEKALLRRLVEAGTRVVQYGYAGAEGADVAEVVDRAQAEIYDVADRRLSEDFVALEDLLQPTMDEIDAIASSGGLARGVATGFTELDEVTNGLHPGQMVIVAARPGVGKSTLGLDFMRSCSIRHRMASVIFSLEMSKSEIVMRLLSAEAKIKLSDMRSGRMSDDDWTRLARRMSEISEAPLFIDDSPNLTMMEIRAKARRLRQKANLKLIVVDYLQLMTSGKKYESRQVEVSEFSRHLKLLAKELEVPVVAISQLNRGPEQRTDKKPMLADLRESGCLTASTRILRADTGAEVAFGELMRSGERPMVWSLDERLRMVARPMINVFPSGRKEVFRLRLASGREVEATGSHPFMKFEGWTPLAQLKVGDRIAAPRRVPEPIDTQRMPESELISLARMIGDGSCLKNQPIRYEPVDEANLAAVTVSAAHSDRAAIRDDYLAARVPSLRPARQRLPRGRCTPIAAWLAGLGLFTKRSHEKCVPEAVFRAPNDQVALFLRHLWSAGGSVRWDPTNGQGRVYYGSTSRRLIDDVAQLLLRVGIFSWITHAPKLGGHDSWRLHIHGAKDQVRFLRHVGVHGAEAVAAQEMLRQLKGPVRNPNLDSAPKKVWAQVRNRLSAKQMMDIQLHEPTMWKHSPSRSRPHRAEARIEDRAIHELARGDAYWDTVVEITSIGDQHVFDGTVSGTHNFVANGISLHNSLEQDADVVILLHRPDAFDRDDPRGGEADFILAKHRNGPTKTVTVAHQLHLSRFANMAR

[8] = Luminescence Cell-Based Dose Retest to Confirm Inhibitors of Cancer Stem Cells. [Related pubchem assays (depositor defined):AID2717, AID2721]; format: functional; details: Homo sapiens
[9] = inhibitors of control Renilla luciferase reporter, dose response, counter-screen for Shn3 3'UTR targeting project, Clone20-Shn3RL cells, dual-Glo, cherry-pick, set 2 (AID 720724); format: functional, cell-based; details: Dual-Go Shn3RL
[10] = control 3'UTR Renilla luciferase suppression, dose response, counter-screen for Shn3 inhibitor project, cell-based, Clone20-Shn3RL, cherry-picked (AID 624133); format: functional
[11] = HepG2 cell cytotoxicity, dose response, cytotoxicity control for Shn3 inhibitor project, CellTiter-Glo, cherry-picked (AID 624134); format: functional, cell-based
cells [12] = assay: cells
[13] = Luminescence Cell-Based Dose Confirmation to Identify Activators of 5'UTR Stem-Loop Driven Alpha-Synuclein mRNA Translation in H4 Neuroglioblastoma Cells. [Related pubchem assays: 1829 (Project Summary), 1814 (Primary HTS)]; format: functional
[14] = miR-122 activators in hepatoma reporter cells, dose response, cell-based, Huh7 psiCHECK-miR122, Renilla luciferase, cherry-picked (AID 651956); format: functional;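 also: huh7 hepatoma cells stably carrying a psiCHECK-2 miR-122 sensor plasmid; renilla luciferase signal reporting endogenous miR-122 activity after 48 h compound exposure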
[15] = Luminescence Cell-Based Dose Response to Identify Activators of 5'UTR Stem-Loop Driven Prion Protein mRNA Translation in H4-C Neuroglioblastoma Cells. [Related pubchem assays: 1829 (Project Summary), 1814 (Primary HTS)]; format: functional
[16] = Luminescence Cell-Based Dose Response to Identify Activators of Luciferase Translation or Activity in H4-C Neuroglioblastoma Cells. [Related pubchem assays: 1829 (Project Summary), 1814 (Primary HTS)]; format: functional
[17] = HEK293T cytotoxicity, dose response, cytotoxicity control for miR-122 modulator project, cell-based, activator set, cherry-pick (AID 720690); format: functional;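 also: HEK293T human cells scored for general mammalian cytotoxicity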
[18] = Luminescence Cell-Based Dose Response HTS to Identify Activators of Luciferase Translation or Activity in H4 […] Cells. [Related pubchem assays: 1829 (Project Summary), 1814 (Primary HTS)]; format: functional
H4 = assay: Luminescence Cell-Based Dose Response HTS to Identify Activators of 5'UTR Stem-Loop Driven Prion Protein mRNA Translation in H4 Neuroglioblastoma Cells. [Related pubchem assays: 1829 (Project Summary), 1814 (Primary HTS)]; format: functional; details: Homo sapiens
[19] = HEK293T cytotoxicity, dose response, cytotoxicity control for miR-122 modulator project, cell-based, inhibitor set, cherry-pick, set 2 (AID 720697); format: functional
[20] = Luminescence Cell-Based Dose Confirmation HTS to Identify Activators of 5'UTR Stem-Loop Driven Alpha-Synuclein mRNA Translation in H4 Neuroglioblastoma Cells. [Related pubchem assays: 1829 (Project Summary), 1814 (Primary HTS)]; format: functional
Cytochrome P450 3A4 = Cytochrome P450 3A4 (Homo sapiens, UniProt P08684);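 also: CYP3A4 tested as one member of a cytochrome P450 panel screen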
Sequence of Cytochrome P450 3A4 (P08684 whole entry, the tested form may be a part): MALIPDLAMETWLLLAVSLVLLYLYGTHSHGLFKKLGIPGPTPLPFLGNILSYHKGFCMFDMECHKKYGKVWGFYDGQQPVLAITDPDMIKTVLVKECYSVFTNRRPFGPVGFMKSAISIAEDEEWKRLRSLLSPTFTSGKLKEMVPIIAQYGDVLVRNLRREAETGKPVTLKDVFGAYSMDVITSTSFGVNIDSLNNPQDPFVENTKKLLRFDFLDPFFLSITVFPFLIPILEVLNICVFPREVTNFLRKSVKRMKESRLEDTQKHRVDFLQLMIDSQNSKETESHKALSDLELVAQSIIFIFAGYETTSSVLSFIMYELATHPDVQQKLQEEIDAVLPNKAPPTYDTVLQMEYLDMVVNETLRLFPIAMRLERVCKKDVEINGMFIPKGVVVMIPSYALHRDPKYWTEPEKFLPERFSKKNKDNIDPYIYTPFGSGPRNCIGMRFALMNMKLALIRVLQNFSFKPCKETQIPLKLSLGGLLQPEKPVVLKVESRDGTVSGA

[21] = molecular target: T3, Oxysterols receptor LXR-beta (Homo sapiens, UniProt P55055); format: functional, cell-based;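 also: agonist activity at LXR measured by a cell-based luminescence readout across a dose range, run as a counterscreen for daf-12 agonists; HEK293 cells with Gal4-LXR fusion and GAL4-driven luciferase reporter; potency for activation of Gal4-LXR reporter so compounds are agonists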
T3 sequence (P55055 whole entry): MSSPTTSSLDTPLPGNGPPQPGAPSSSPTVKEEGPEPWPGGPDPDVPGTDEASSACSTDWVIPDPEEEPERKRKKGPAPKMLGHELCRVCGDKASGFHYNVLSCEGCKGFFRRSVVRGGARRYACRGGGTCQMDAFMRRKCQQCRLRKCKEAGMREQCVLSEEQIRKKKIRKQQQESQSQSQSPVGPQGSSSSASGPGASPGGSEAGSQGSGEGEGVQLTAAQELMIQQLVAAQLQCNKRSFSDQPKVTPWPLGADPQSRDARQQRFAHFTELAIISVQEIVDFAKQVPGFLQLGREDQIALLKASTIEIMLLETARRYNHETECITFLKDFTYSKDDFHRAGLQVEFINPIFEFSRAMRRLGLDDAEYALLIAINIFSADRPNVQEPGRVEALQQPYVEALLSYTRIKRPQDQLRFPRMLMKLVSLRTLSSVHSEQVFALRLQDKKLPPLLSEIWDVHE

[22] = HEK293 Cytotoxicity Assay Measured in Cell-Based System Using Plate Reader - 7071-01_Inhibitor_Dose_CherryPick_Activity_Set2.; format: functional
HEK293 = assay: HEK293T cell cytotoxicity, dose response, cytotoxicity control, ATP luminescence, cherry-pick samples (AID 687005); format: functional, cell-based; details: Homo sapiens;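 also: cells exposed to compound for 48 hours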
[23] = molecular target: Potassium channel subfamily K member 3 (Homo sapiens, UniProt O14649); assay: TASK1 (KCNK3) potassium channel inhibitors, SAR follow-up, CHO cells, FluxOR thallium flux (AID 652212); format: functional
Sequence of Potassium channel subfamily K member 3 (O14649 whole entry): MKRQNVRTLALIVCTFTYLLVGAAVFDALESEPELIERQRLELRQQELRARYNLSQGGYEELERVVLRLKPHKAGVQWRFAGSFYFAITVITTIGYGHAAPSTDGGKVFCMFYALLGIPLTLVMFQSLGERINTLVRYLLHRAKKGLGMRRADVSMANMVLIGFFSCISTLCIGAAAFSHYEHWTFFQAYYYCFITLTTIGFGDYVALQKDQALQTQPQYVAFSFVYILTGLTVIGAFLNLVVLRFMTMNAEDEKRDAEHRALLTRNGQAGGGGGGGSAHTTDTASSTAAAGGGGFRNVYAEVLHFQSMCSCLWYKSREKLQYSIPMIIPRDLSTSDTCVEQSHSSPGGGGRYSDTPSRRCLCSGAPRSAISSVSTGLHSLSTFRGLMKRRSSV

[24] = HeLa cell cytotoxicity, dose response, cytotoxicity control, 24 h, plate reader, dry powder (AID 686928); format: functional, cell-based
[25] = HEK293 cell cytotoxicity, dose response, cytotoxicity control, ATP luminescence, dry powder, Set6 (AID 743142); format: functional, cell-based
[26] = A549 cell cytotoxicity, dose response, cytotoxicity control, CellTiter-Glo luminescence, dry powder, set 3 (AID 743146); format: functional, cell-based
[27] = TRPM1 promoter luciferase reporter signal decrease, dose response, MITF inhibitor project, cell-based, SK-MEL-5, dry powder, set 8 (AID 624430); format: functional
[28] = MITF: Counter assay: A375 proliferation Measured in Cell-Based System Using Plate Reader - 2084-03_Inhibitor_Dose_DryPowder_Activity_Set8.; format: functional; details: A-375
[29] = MITF Orthogonal Assay: SK-MEL-5 CTG Assay Measured in Cell-Based System Using Plate Reader - 2084-02_Inhibitor_Dose_DryPowder_Activity_Set7.; format: functional
[30] = molecular target: Metabotropic glutamate receptor 3 (Rattus norvegicus, UniProt P31422); assay: mGlu3 negative allosteric modulator potency, dose response, HEK/GIRK cells, thallium flux, rat (AID 651839); format: functional
Sequence of Metabotropic glutamate receptor 3 (P31422 whole entry): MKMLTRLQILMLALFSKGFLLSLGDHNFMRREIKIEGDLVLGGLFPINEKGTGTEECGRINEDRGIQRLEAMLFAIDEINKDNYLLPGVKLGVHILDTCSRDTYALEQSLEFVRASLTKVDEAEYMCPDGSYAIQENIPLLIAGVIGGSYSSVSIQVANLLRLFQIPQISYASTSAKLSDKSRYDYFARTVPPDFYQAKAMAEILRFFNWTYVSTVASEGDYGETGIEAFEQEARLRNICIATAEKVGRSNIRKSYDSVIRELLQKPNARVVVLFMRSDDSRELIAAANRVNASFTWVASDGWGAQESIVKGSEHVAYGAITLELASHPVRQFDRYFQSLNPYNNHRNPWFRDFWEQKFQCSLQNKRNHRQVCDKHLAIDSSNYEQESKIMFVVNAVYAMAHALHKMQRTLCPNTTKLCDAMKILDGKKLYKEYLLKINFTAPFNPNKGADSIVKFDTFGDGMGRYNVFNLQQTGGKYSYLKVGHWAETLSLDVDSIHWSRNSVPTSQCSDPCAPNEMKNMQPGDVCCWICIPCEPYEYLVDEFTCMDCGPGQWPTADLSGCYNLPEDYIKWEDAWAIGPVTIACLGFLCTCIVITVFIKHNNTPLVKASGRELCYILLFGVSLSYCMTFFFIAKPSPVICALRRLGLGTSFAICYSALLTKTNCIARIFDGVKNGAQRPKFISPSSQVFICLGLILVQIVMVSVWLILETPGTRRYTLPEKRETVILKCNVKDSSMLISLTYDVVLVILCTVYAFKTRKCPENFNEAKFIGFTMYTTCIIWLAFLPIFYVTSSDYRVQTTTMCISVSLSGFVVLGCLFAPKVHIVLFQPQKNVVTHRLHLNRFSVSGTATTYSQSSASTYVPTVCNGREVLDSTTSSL

[31] = M. tuberculosis growth inhibition, HTS (AID 449762); format: functional
NS3 = NS3 (Hepatitis C virus, UniProt A3EZJ3); assay: HCV NS3 helicase inhibitor potency, dose response, biochemical, fluorescence polarization, ChemBridge library (AID 743264)
Sequence of NS3 (A3EZJ3 whole entry): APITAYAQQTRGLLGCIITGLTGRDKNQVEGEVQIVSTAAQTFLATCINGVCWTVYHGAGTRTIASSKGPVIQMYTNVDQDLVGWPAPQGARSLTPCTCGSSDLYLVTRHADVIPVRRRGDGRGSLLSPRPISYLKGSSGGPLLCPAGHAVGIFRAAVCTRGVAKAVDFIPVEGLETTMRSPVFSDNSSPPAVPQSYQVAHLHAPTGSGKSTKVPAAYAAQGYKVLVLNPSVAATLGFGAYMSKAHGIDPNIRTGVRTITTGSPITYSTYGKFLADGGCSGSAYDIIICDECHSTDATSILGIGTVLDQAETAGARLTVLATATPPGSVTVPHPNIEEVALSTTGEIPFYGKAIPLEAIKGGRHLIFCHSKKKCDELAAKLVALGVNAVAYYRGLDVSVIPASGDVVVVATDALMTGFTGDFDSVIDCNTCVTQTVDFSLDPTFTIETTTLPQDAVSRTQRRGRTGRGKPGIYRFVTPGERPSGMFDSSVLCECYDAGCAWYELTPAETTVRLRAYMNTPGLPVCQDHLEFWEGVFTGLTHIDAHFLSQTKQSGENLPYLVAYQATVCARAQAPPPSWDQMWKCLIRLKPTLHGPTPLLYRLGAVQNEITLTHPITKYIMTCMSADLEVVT

Cytochrome P450 2C9 = Cytochrome P450 2C9 (Homo sapiens, UniProt P11712)
Sequence of Cytochrome P450 2C9 (P11712 whole entry): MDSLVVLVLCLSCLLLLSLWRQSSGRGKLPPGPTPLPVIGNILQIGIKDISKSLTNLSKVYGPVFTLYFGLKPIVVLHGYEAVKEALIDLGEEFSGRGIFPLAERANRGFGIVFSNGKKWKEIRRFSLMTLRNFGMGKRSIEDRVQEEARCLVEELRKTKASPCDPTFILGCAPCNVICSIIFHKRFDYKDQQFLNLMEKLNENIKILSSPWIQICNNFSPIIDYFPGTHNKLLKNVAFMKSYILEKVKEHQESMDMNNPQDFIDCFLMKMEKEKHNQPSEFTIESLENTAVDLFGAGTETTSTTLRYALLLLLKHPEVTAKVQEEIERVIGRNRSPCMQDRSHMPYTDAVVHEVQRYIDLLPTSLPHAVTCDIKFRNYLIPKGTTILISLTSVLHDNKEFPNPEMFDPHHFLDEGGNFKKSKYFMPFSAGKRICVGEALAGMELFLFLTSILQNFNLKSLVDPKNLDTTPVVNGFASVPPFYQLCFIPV

COc1ccc(-c2cc(C(F)(F)F)nc(S(C)(=O)=O)n2)cc1
AC50 [1]: 15.3 µM (active) | IC50 (cells [2]): 10.9 µM (active) | AC50 [3]: 5.05 µM (active) | AC50 [4]: 4.46 µM (active) | IC50 [5]: 5.47 µM (active) | CC50 [6]: 26 µM (active) | EC50 (Protein RecA): 4.88 µM (active) | AC50 [7]: 5.99 µM (active) | AC50 [8]: 3.81 µM (active) | AC50 [9]: 48.6 µM (active) | AC50 [10]: 26.3 µM (active) | AC50 [11]: 45.9 µM (active)

COc1cc(C(=O)NCCCNc2nc3c(C)cc(C)cc3cc2C#N)cc(OC)c1OC
AC50 (cells [12]): 4.79 µM (active)

CCOC(=O)c1cc2c(C)n(-c3ccc(C)cc3)c(C)c2ccc1=O
EC50 [13]: 0.262 µM (active) | AC50 [14]: 1.46 µM (active) | EC50 [15]: 0.333 µM (active) | EC50 [16]: 0.376 µM (active) | AC50 [17]: 3.93 µM (active) | EC50 [18]: < 0.1 µM (active) | EC50 (H4): < 0.1 µM (active) | AC50 [19]: 7.08 µM (active) | EC50 [20]: 0.1 µM (active) | AC50 (Cytochrome P450 3A4): inconclusive

Cc1ccc(N/C=C(/C#N)c2ccsc2)cc1C
EC50 [21]: > 67.5 µM (inactive)

COc1ccccc1-c1ccc([C@H]2[C@H](C#N)N(C(=O)C3CC3)[C@H]2CO)cc1
AC50 [22]: 24.8 µM (active) | AC50 (HEK293): 24.8 µM (active)

CCOc1ccccc1NC(=O)c1cccc(C(=O)NC2CCCC2)c1
IC50 [23]: 0.342 µM (active)

O=C(Nc1nnc(C2CCCC2)o1)C1CCCCC1
AC50 [24]: 165 µM (active)

O=C(CCNC(=O)c1ccc(C(F)(F)F)cc1)N[C@@H]1CCCc2ccccc21
AC50 [25]: 7.54 µM (active) | AC50 [26]: 26 µM (active)

COc1ccc(NC2=C(N3CCN(C(C)C)CC3)C(=O)c3ccccc3C2=O)cc1
AC50 [27]: 3.28 µM (active) | AC50 [28]: 45 µM (active) | AC50 [29]: 16.6 µM (active)

COc1ccc(-c2ccc3cc(C(=O)N4CCCC(CO)C4)ccc3c2)cn1 (configuration not stated)
IC50 [30]: 6.77 µM (active)

O=C(O)Cc1c[nH]c2ccc(O)cc12
IC50 [31]: > 100 µM (active) | IC50 (NS3): 69.3 µM (active) | AC50 (Cytochrome P450 2C9): inconclusive
